Results: ChEMBL document CHEMBL3046001, “4-Thiazolidinone and 1-thia-3,4,9-triaza fluorene conjugates: synthesis, characterization and antimicrobial screening” (2013)
Values after ≈ are worked out from the molar mass of the structure shown. Active and inactive are the calls of the source. No cut-off for these calls is given here.

Legend:
Pseudomonas fluorescens [1] = assay: Antibacterial activity against Pseudomonas fluorescens MTCC 2421 assessed as growth inhibition at 100 ug/mL after 48 hr by agar diffusion method; type: functional; settings: MTCC 2421, 48 h, read-out: DIZ
Pseudomonas aeruginosa [2] = assay: Antibacterial activity against Pseudomonas aeruginosa MTCC 424 assessed as growth inhibition at 500 ug/mL after 48 hr by agar diffusion method; type: functional; settings: MTCC 424, 48 h, read-out: DIZ
Staphylococcus aureus [3] = assay: Antibacterial activity against Staphylococcus aureus MTCC 1430 assessed as growth inhibition at 100 ug/mL after 48 hr by agar diffusion method; type: functional, organism-based
Staphylococcus aureus [4] = assay: Antibacterial activity against Staphylococcus aureus MTCC 1430 assessed as growth inhibition at 250 ug/mL after 48 hr by agar diffusion method; type: functional
Aspergillus niger [5] = assay: Antifungal activity against Aspergillus niger MTCC 2546 assessed as growth inhibition at 750 ug/mL after 48 hr by agar diffusion method; type: functional; settings: MTCC 2546, 48 h, read-out: DIZ
Bacillus pumilus [6] = assay: Antibacterial activity against Bacillus pumilus MTCC 1456 assessed as growth inhibition at 100 ug/mL after 48 hr by agar diffusion method; type: functional; settings: MTCC 1456, 48 h, read-out: DIZ
Pseudomonas aeruginosa [7] = assay: Antibacterial activity against Pseudomonas aeruginosa MTCC 424 assessed as growth inhibition at 250 ug/mL after 48 hr by agar diffusion method; type: functional; settings: MTCC 424, 48 h, read-out: DIZ
Aspergillus niger [8] = assay: Antifungal activity against Aspergillus niger MTCC 2546 assessed as growth inhibition after 24 hr by tube dilution method; type: functional; settings: MTCC 2546, 24 h
Pseudomonas fluorescens [9] = assay: Antibacterial activity against Pseudomonas fluorescens MTCC 2421 assessed as growth inhibition at 500 ug/mL after 48 hr by agar diffusion method; type: functional; settings: MTCC 2421, 48 h, read-out: DIZ
Bacillus pumilus [10] = assay: Antibacterial activity against Bacillus pumilus MTCC 1456 assessed as growth inhibition at 250 ug/mL after 48 hr by agar diffusion method; type: functional; settings: MTCC 1456, 48 h, read-out: DIZ
Aspergillus niger [11] = assay: Antifungal activity against Aspergillus niger MTCC 2546 assessed as growth inhibition at 1250 ug/mL after 48 hr by agar diffusion method; type: functional; settings: MTCC 2546, 48 h, read-out: DIZ
Escherichia coli [12] = assay: Antibacterial activity against Escherichia coli MTCC 1573 assessed as growth inhibition after 24 hr by tube dilution method; type: functional; settings: MTCC 1573, 24 h
Pseudomonas fluorescens [13] = assay: Antibacterial activity against Pseudomonas fluorescens MTCC 2421 assessed as growth inhibition at 250 ug/mL after 48 hr by agar diffusion method; type: functional; settings: MTCC 2421, 48 h, read-out: DIZ
Penicillium chrysogenum [14] = assay: Antifungal activity against Penicillium chrysogenum MTCC 161 assessed as growth inhibition at 250 ug/mL after 48 hr by agar diffusion method; type: functional
Bacillus subtilis [15] = assay: Antibacterial activity against Bacillus subtilis MTCC 441 assessed as growth inhibition at 750 ug/mL after 48 hr by agar diffusion method; type: functional; settings: MTCC 441, 48 h, read-out: DIZ
Penicillium chrysogenum [16] = assay: Antifungal activity against Penicillium chrysogenum MTCC 161 assessed as growth inhibition at 500 ug/mL after 48 hr by agar diffusion method; type: functional; settings: MTCC 161, 48 h, read-out: DIZ
Escherichia coli [17] = assay: Antibacterial activity against Escherichia coli MTCC 1573 assessed as growth inhibition at 750 ug/mL after 48 hr by agar diffusion method; type: functional; settings: MTCC 1573, 48 h, read-out: DIZ
Escherichia coli [18] = assay: Antibacterial activity against Escherichia coli MTCC 1573 assessed as growth inhibition at 500 ug/mL after 48 hr by agar diffusion method; type: functional; settings: MTCC 1573, 48 h, read-out: DIZ
Micrococcus luteus [19] = assay: Antibacterial activity against Micrococcus luteus MTCC 1538 assessed as growth inhibition at 1000 ug/mL after 48 hr by agar diffusion method; type: functional; settings: MTCC 1538, 48 h, read-out: DIZ
Micrococcus luteus [20] = assay: Antibacterial activity against Micrococcus luteus MTCC 1538 assessed as growth inhibition after 24 hr by tube dilution method; type: functional; settings: MTCC 1538, 24 h
Aspergillus niger [21] = assay: Antifungal activity against Aspergillus niger MTCC 2546 assessed as growth inhibition at 100 ug/mL after 48 hr by agar diffusion method; type: functional, organism-based
Pseudomonas fluorescens [22] = assay: Antibacterial activity against Pseudomonas fluorescens MTCC 2421 assessed as growth inhibition after 24 hr by tube dilution method; type: functional; settings: MTCC 2421, 24 h
Pseudomonas aeruginosa [23] = assay: Antibacterial activity against Pseudomonas aeruginosa MTCC 424 assessed as growth inhibition at 100 ug/mL after 48 hr by agar diffusion method; type: functional; settings: MTCC 424, 48 h, read-out: DIZ
Bacillus pumilus [24] = assay: Antibacterial activity against Bacillus pumilus MTCC 1456 assessed as growth inhibition at 1000 ug/mL after 48 hr by agar diffusion method; type: functional; settings: MTCC 1456, 48 h, read-out: DIZ
Aspergillus niger [25] = assay: Antifungal activity against Aspergillus niger MTCC 2546 assessed as growth inhibition at 500 ug/mL after 48 hr by agar diffusion method; type: functional; settings: MTCC 2546, 48 h, read-out: DIZ
Pseudomonas fluorescens [26] = assay: Antibacterial activity against Pseudomonas fluorescens MTCC 2421 assessed as growth inhibition at 750 ug/mL after 48 hr by agar diffusion method; type: functional; settings: MTCC 2421, 48 h, read-out: DIZ
Bacillus subtilis [27] = assay: Antibacterial activity against Bacillus subtilis MTCC 441 assessed as growth inhibition at 500 ug/mL after 48 hr by agar diffusion method; type: functional; settings: MTCC 441, 48 h, read-out: DIZ
Bacillus subtilis [28] = assay: Antibacterial activity against Bacillus subtilis MTCC 441 assessed as growth inhibition at 1000 ug/mL after 48 hr by agar diffusion method; type: functional; settings: MTCC 441, 48 h, read-out: DIZ
Escherichia coli [29] = assay: Antibacterial activity against Escherichia coli MTCC 1573 assessed as growth inhibition at 1000 ug/mL after 48 hr by agar diffusion method; type: functional; settings: MTCC 1573, 48 h, read-out: DIZ
Staphylococcus aureus [30] = assay: Antibacterial activity against Staphylococcus aureus MTCC 1430 assessed as growth inhibition at 1250 ug/mL after 48 hr by agar diffusion method; type: functional; settings: MTCC 1430, 48 h, read-out: DIZ
Staphylococcus aureus [31] = assay: Antibacterial activity against Staphylococcus aureus MTCC 1430 assessed as growth inhibition after 24 hr by tube dilution method; type: functional; settings: MTCC 1430, 24 h
Bacillus subtilis [32] = assay: Antibacterial activity against Bacillus subtilis MTCC 441 assessed as growth inhibition at 250 ug/mL after 48 hr by agar diffusion method; type: functional; settings: MTCC 441, 48 h, read-out: DIZ
Pseudomonas aeruginosa [33] = assay: Antibacterial activity against Pseudomonas aeruginosa MTCC 424 assessed as growth inhibition at 1250 ug/mL after 48 hr by agar diffusion method; type: functional; settings: MTCC 424, 48 h, read-out: DIZ
Staphylococcus aureus [34] = assay: Antibacterial activity against Staphylococcus aureus MTCC 1430 assessed as growth inhibition at 500 ug/mL after 48 hr by agar diffusion method; type: functional; settings: MTCC 1430, 48 h, read-out: DIZ
Penicillium chrysogenum [35] = assay: Antifungal activity against Penicillium chrysogenum MTCC 161 assessed as growth inhibition at 1000 ug/mL after 48 hr by agar diffusion method; type: functional; settings: MTCC 161, 48 h, read-out: DIZ
Pseudomonas aeruginosa [36] = assay: Antibacterial activity against Pseudomonas aeruginosa MTCC 424 assessed as growth inhibition at 750 ug/mL after 48 hr by agar diffusion method; type: functional; settings: MTCC 424, 48 h, read-out: DIZ
Bacillus subtilis [37] = assay: Antibacterial activity against Bacillus subtilis MTCC 441 assessed as growth inhibition after 24 hr by tube dilution method; type: functional; settings: MTCC 441, 24 h
Micrococcus luteus [38] = assay: Antibacterial activity against Micrococcus luteus MTCC 1538 assessed as growth inhibition at 750 ug/mL after 48 hr by agar diffusion method; type: functional; settings: MTCC 1538, 48 h, read-out: DIZ
Staphylococcus aureus [39] = assay: Antibacterial activity against Staphylococcus aureus MTCC 1430 assessed as growth inhibition at 1000 ug/mL after 48 hr by agar diffusion method; type: functional; settings: MTCC 1430, 48 h, read-out: DIZ

| SMILES | zone of inhibition at 100 µg/mL (Pseudomonas fluorescens [1]) | zone of inhibition at 500 µg/mL (Pseudomonas aeruginosa [2]) | growth inhibition (GI) (Staphylococcus aureus [3]) | zone of inhibition at 750 µg/mL (Aspergillus niger [5]) | zone of inhibition at 100 µg/mL (Bacillus pumilus [6]) | zone of inhibition at 250 µg/mL (Pseudomonas aeruginosa [7]) | MIC (Aspergillus niger [8]) | zone of inhibition at 500 µg/mL (Pseudomonas fluorescens [9]) | zone of inhibition at 250 µg/mL (Bacillus pumilus [10]) | zone of inhibition at 1250 µg/mL (Aspergillus niger [11]) | MIC (Escherichia coli [12]) | zone of inhibition at 250 µg/mL (Pseudomonas fluorescens [13]) | zone of inhibition at 750 µg/mL (Bacillus subtilis [15]) | zone of inhibition at 500 µg/mL (Penicillium chrysogenum [16]) | zone of inhibition at 750 µg/mL (Escherichia coli [17]) | zone of inhibition at 500 µg/mL (Escherichia coli [18]) | zone of inhibition at 1000 µg/mL (Micrococcus luteus [19]) | MIC (Micrococcus luteus [20]) | growth inhibition (GI) (Aspergillus niger [21]) | MIC (Pseudomonas fluorescens [22]) | further results |
| --- | --- | --- | --- | --- | --- | --- | --- | --- | --- | --- | --- | --- | --- | --- | --- | --- | --- | --- | --- | --- | --- |
| CC1SCC(=O)N1c1nnc2c3ccccc3nc-2s1 (stereo not drawn) | 8 mm | 12 mm | inactive | 11 mm | 7 mm | 11 mm | 250 µg/mL (≈ 827 µM) | 13 mm | 9 mm | 17 mm | 40 µg/mL (≈ 132 µM) | 10 mm | 18 mm | 10 mm | 15 mm | 13 mm | 17 mm | 40 µg/mL (≈ 132 µM) | inactive | 30 µg/mL (≈ 99.2 µM) | growth inhibition (GI) (Staphylococcus aureus [4]): inactive; growth inhibition (GI) (Penicillium chrysogenum [14]): inactive; zone of inhibition at 100 µg/mL (Pseudomonas aeruginosa [23]): 8 mm; zone of inhibition at 1000 µg/mL (Bacillus pumilus [24]): 22 mm; zone of inhibition at 500 µg/mL (Aspergillus niger [25]): 8 mm; zone of inhibition at 750 µg/mL (Pseudomonas fluorescens [26]): 17 mm; zone of inhibition at 500 µg/mL (Bacillus subtilis [27]): 15 mm; zone of inhibition at 1000 µg/mL (Bacillus subtilis [28]): 20 mm; zone of inhibition at 1000 µg/mL (Escherichia coli [29]): 18 mm; zone of inhibition at 1250 µg/mL (Staphylococcus aureus [30]): 17 mm; MIC (Staphylococcus aureus [31]): 250 µg/mL (≈ 827 µM); zone of inhibition at 250 µg/mL (Bacillus subtilis [32]): 13 mm; zone of inhibition at 1250 µg/mL (Pseudomonas aeruginosa [33]): 24 mm; zone of inhibition at 500 µg/mL (Staphylococcus aureus [34]): 8 mm; zone of inhibition at 1000 µg/mL (Penicillium chrysogenum [35]): 15 mm; zone of inhibition at 750 µg/mL (Pseudomonas aeruginosa [36]): 15 mm; MIC (Bacillus subtilis [37]): 30 µg/mL (≈ 99.2 µM); zone of inhibition at 750 µg/mL (Micrococcus luteus [38]): 14 mm; zone of inhibition at 1000 µg/mL (Staphylococcus aureus [39]): 15 mm |
| O=C1CSC(c2ccccn2)N1c1nnc2c3ccccc3nc-2s1 (stereo not drawn) | 7 mm | 13 mm | inactive | 14 mm | 8 mm | 9 mm | 150 µg/mL (≈ 410 µM) | 13 mm | 10 mm | 17 mm | 40 µg/mL (≈ 109 µM) | 10 mm | 13 mm | 12 mm | 15 mm | 13 mm | 15 mm | 250 µg/mL (≈ 684 µM) | inactive | 50 µg/mL (≈ 137 µM) | zone of inhibition at 250 µg/mL (Staphylococcus aureus [4]; MTCC 1430, 48 h, read-out: DIZ): 8 mm; zone of inhibition at 250 µg/mL (Penicillium chrysogenum [14]; MTCC 161, 48 h, read-out: DIZ): 9 mm; zone of inhibition at 100 µg/mL (Pseudomonas aeruginosa [23]): 7 mm; zone of inhibition at 1000 µg/mL (Bacillus pumilus [24]): 19 mm; zone of inhibition at 500 µg/mL (Aspergillus niger [25]): 11 mm; zone of inhibition at 750 µg/mL (Pseudomonas fluorescens [26]): 15 mm; zone of inhibition at 500 µg/mL (Bacillus subtilis [27]): 12 mm; zone of inhibition at 1000 µg/mL (Bacillus subtilis [28]): 15 mm; zone of inhibition at 1000 µg/mL (Escherichia coli [29]): 18 mm; zone of inhibition at 1250 µg/mL (Staphylococcus aureus [30]): 15 mm; MIC (Staphylococcus aureus [31]): 200 µg/mL (≈ 547 µM); zone of inhibition at 250 µg/mL (Bacillus subtilis [32]): 10 mm; zone of inhibition at 1250 µg/mL (Pseudomonas aeruginosa [33]): 22 mm; zone of inhibition at 500 µg/mL (Staphylococcus aureus [34]): 9 mm; zone of inhibition at 1000 µg/mL (Penicillium chrysogenum [35]): 15 mm; zone of inhibition at 750 µg/mL (Pseudomonas aeruginosa [36]): 15 mm; MIC (Bacillus subtilis [37]): 40 µg/mL (≈ 109 µM); zone of inhibition at 750 µg/mL (Micrococcus luteus [38]): 14 mm; zone of inhibition at 1000 µg/mL (Staphylococcus aureus [39]): 12 mm |
